Results as given in PubChem BioAssay AID1963448 (Molecular Pharmacology Branch, DTP, NCI, 2024).
“And” between values parts separate entries of the source, which are not always exact repeats. Equal entries are not always repeated.

System: 616215-338-R-J1-PDC complex spheroid growth, % test/control
Test: Anticancer human tumor 616215-338-R-J1-PDC patient-derived colon adenocarcinoma cell line growth inhibition [Asc]
Details: for viability, T/C: stronger effect = lower value
Method: Multicellular complex tumor spheroid response to apoptosis pathway targeting inhibitors Alrizomadlin, Pelcitoclax, and Dasminapant in combination with a variety of drugs and investigational agents in selected tumor cell lines
The MDM2 inhibitor alrizomadlin, the Bcl-2/Bcl-xL inhibitor pelcitoclax, and the IAPs inhibitor dasminapant were evaluated both individually and in combination with standard of care and investigational anticancer small molecules within a complex spheroid model of solid tumors. . Complex spheroids include a stromal component modeled by human endothelial cells (HUVEC) and fibroblasts modeled by human mesenchymal stem cells (MSCs). The concentration ranges selected for each drug and investigational agent were based upon clinically achievable concentrations if the clinical Cmax of the agent was known.
Compounds. The drugs and investigational agents: alrizomadlin (APG-115; NSC831270), pelcitoclax (APG-1252; NSC835773), dasminapant (APG-1387;NSC834197), TAK-243 (NSC785004), copanlisib (NSC809693), olaparib (NSC753686), talazoparib (NSC767125), cobimetinib (NSC 768068), eltanexor (KPT-8602, NSC 794443), abemaciclib (NSC 768073), sotorasib (NSC818433), adagrasib (NSC 831453), MRTX-1133 (NSC 836407), Iadademestat (ORY1001, NSC 806812), and RMC-4630 (NSC839698), were obtained from the NCI Developmental Therapeutics Program Chemical Repository. The FDA-approved anticancer drug set is available from the Developmental Therapeutics Program at https://dtp.cancer.gov/organization/dscb/obtaining/available plates.htm. […] The stock solutions were prepared in dimethyl sulfoxide (DMSO, Sigma-Aldrich, St. Louis, MO, cat. D2650) at 800-fold the tested concentration and stored at -70 degrees C prior to their use. All drugs and investigational agents were tested over a range starting from a high concentration at or near the clinical Cmax and decreasing in half-log increments. If the clinical Cmax for an agent had not been determined, the highest concentration tested was 10 microM.
The patient-derived cancer (PDC) cell lines include five colon adenocarcinomas: 186277-243-T-J2-PDC, 616215-338-R-J1-PDC, 439559-082-T-J2-PDC, 463943-066-T-J2-PDC, and 519858-162-T-J1-PDC; three pancreatic carcinomas: 323965-272-R-J2-PDC, 521955-158-R6-J3-PDC, and 521955-158-R2-J5-PDC; two uterine sarcomas: 327498-152-R-J2-PDC and 993429-296-R-J1-PDC; two rhabdomyosarcomas: 755483-174-R-J1-PDC and 772245-204-R-J1-PDC; two soft tissue sarcomas: 126254-015-R-J1-PDC and 494315-158-R-J1-PDC; two malignant fibrous histiocytomas: 317291-083-R-J1-PDC and 596521-263-R-J1-PDC; two breast carcinomas: 171881-019-R-J1-PDC and 885512-296-R-J2-PDC; and one ovarian carcinoma: 6556581-035-R-J-PDC were obtained from the NCI PDMR, (https://pdmr.cancer.gov). The established cell lines HSSY-2 synovial sarcoma (RRID:CVCL 8719), SYO-1 synovial sarcoma (RRID:CVCL_7146), MPNST malignant peripheral neural sheath tumor were obtained from the Sloan Kettering Institute. The following established cell lines were purchased from the American Type Culture Collection (ATCC, Manassas, VA), Sor the received from the NCI repository:, PANC-1 pancreatic carcinoma (CRL-1469, RRID:CVCL_0480), OVCAR-5 ovarian carcinoma (RRID:CVCL_1628), OVCAR-8 ovarian carcinoma (RRID:CVCL_1629), , MCF-7 breast carcinoma (CRL-12584, RRID:CVCL_0031), MDA-MB-231 breast carcinoma (CRL-12532, RRID:CVCL_0062), NCI-H1876 small cell lung carcinoma (CRL-5902, RRID:CVCL_1503), NCI-H510A small cell lung carcinoma (HTB-184, RRID:CVCL_1565), NCI-H1417 (CRL-5869, RRID:CVCL_1469), and NCI-H196 small cell lung carcinoma (CRL-5823, RRID:CVCL_1509). Dr. Peter Houghton (Greehey Children's Cancer Research Institute, University of Texas Health Science Center, San Antonio, TX) provided Rh-18 rhabdomyosarcoma (RRID:CVCL_1659). Pooled donor human umbilical vein endothelial cells (HUVEC, Lonza, cat. CC-2519) and human mesenchymal stem cells (hMSC, Lonza, cat. PT-2501) were purchased from Lonza (Walkersville, MD).
Cell Culture. […]

[1] = curve of first compound, second compound 0.00316 µM
[2] = curve of first compound, second compound 0.01 µM
[3] = curve of first compound, second compound 0.0316 µM
[4] = curve of first compound, second compound 0.1 µM
[5] = curve of first compound, second compound 0.316 µM
[6] = curve of first compound, second compound 1 µM
[7] = second compound 0.00316 µM, first compound 0.00316 µM
[8] = second compound 0.00316 µM, first compound 0.01 µM
[9] = second compound 0.00316 µM, first compound 0.0316 µM
[10] = second compound 0.00316 µM, first compound 0.1 µM
[11] = second compound 0.01 µM, first compound 0.00316 µM
[12] = second compound 0.01 µM, first compound 0.01 µM
[13] = second compound 0.01 µM, first compound 0.0316 µM
[14] = second compound 0.01 µM, first compound 0.1 µM
[15] = second compound 0.0316 µM, first compound 0.00316 µM
[16] = second compound 0.0316 µM, first compound 0.01 µM
[17] = second compound 0.0316 µM, first compound 0.0316 µM
[18] = second compound 0.0316 µM, first compound 0.1 µM
[19] = second compound 0.1 µM, first compound 0.00316 µM
[20] = second compound 0.1 µM, first compound 0.01 µM
[21] = second compound 0.1 µM, first compound 0.0316 µM
[22] = second compound 0.1 µM, first compound 0.1 µM
[23] = second compound 0.316 µM, first compound 0.00316 µM
[24] = second compound 0.316 µM, first compound 0.01 µM
[25] = second compound 0.316 µM, first compound 0.0316 µM
[26] = second compound 0.316 µM, first compound 0.1 µM
[27] = second compound 1 µM, first compound 0.00316 µM
[28] = second compound 1 µM, first compound 0.01 µM
[29] = second compound 1 µM, first compound 0.0316 µM
[30] = second compound 1 µM, first compound 0.1 µM
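Also: spheroids exposed to agents for seven days before readout.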
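For viability, T/C in this document: 100% = DMSO vehicle control viability.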

NC1CCC(NC2CC2c2ccccc2)CC1 (configuration not stated) + CNC(C)C(=O)NC1CN(S(=O)(=O)c2cccc(S(=O)(=O)N3CCC4CCC(C(=O)NC(c5ccccc5)c5ccccc5)N4C(=O)C(NC(=O)C(C)NC)C3)c2)CCC2CCC(C(=O)NC(c3ccccc3)c3ccccc3)N2C1=O
IC50 [1]: > 100 nM
IC50 [2]: > 100 nM
IC50 [3]: > 100 nM
IC50 [4]: > 100 nM
IC50 [5]: > 100 nM
IC50 [6]: > 100 nM
viability, T/C (second compound 0.00316 µM, first compound 0.000316 µM): 101%
viability, T/C (second compound 0.00316 µM, first compound 0.001 µM): 94.2%
viability, T/C [7]: 73.6%
viability, T/C [8]: 93.9%
viability, T/C [9]: 103%
viability, T/C [10]: 91%
viability, T/C (second compound 0.01 µM, first compound 0.000316 µM): 96.7%
viability, T/C (second compound 0.01 µM, first compound 0.001 µM): 93.9%
viability, T/C [11]: 95.7%
viability, T/C [12]: 100%
viability, T/C [13]: 95.2%
viability, T/C [14]: 98%
viability, T/C (second compound 0.0316 µM, first compound 0.000316 µM): 92%
viability, T/C (second compound 0.0316 µM, first compound 0.001 µM): 89.8%
viability, T/C [15]: 89.9%
viability, T/C [16]: 82.8%
viability, T/C [17]: 96.1%
viability, T/C [18]: 95.3%
viability, T/C (second compound 0.1 µM, first compound 0.000316 µM): 100%
viability, T/C (second compound 0.1 µM, first compound 0.001 µM): 87%
viability, T/C [19]: 92.2%
viability, T/C [20]: 99%
viability, T/C [21]: 98.7%
viability, T/C [22]: 89.8%
viability, T/C (second compound 0.316 µM, first compound 0.000316 µM): 103%
viability, T/C (second compound 0.316 µM, first compound 0.001 µM): 94.2%
viability, T/C [23]: 88.4%
viability, T/C [24]: 97.5%
viability, T/C [25]: 102%
viability, T/C [26]: 90.7%
viability, T/C (second compound 1 µM, first compound 0.000316 µM): 103%
viability, T/C (second compound 1 µM, first compound 0.001 µM): 91%
viability, T/C [27]: 95.4%
viability, T/C [28]: 72.9%
viability, T/C [29]: 98.5%
viability, T/C [30]: 84.7%

CCN1C(C(=O)NC23CCC(C(=O)O)(CC2)CC3)C(c2cccc(Cl)c2F)C2(C(=O)Nc3cc(Cl)ccc32)C12CCCCC2 (configuration not stated)
viability, T/C (compound 0.00949 µM): 106% and 100%
viability, T/C (compound 0.03 µM): 96.6% [middle of 15 runs]
IC50 (curve of compound): 965 nM and > 3000 nM

CNC(C)C(=O)NC1CN(S(=O)(=O)c2cccc(S(=O)(=O)N3CCC4CCC(C(=O)NC(c5ccccc5)c5ccccc5)N4C(=O)C(NC(=O)C(C)NC)C3)c2)CCC2CCC(C(=O)NC(c3ccccc3)c3ccccc3)N2C1=O (configuration not stated)
viability, T/C (compound 0.01 µM): 105% [middle of 9 runs]
viability, T/C (compound 0.1 µM): 101% [middle of 9 runs]
viability, T/C (compound 0.316 µM): 102% [middle of 9 runs]
viability, T/C (compound 1 µM): 101% [middle of 9 runs]
IC50 (curve of compound): > 1000 nM

O=C(c1ccc(F)c(F)c1Nc1ccc(I)cc1F)N1CC(O)([C@@H]2CCCCN2)C1 + CNC(C)C(=O)NC1CN(S(=O)(=O)c2cccc(S(=O)(=O)N3CCC4CCC(C(=O)NC(c5ccccc5)c5ccccc5)N4C(=O)C(NC(=O)C(C)NC)C3)c2)CCC2CCC(C(=O)NC(c3ccccc3)c3ccccc3)N2C1=O
IC50 [1]: 40.6 nM
IC50 [2]: 19.2 nM
IC50 [3]: 46.6 nM
IC50 [4]: 44.6 nM
IC50 [5]: 38.5 nM
IC50 [6]: 24 nM
viability, T/C [7]: 113%
viability, T/C [8]: 94.8%
viability, T/C [9]: 64.3%
viability, T/C [10]: 3.19%
viability, T/C (second compound 0.00316 µM, first compound 0.316 µM): 0.64%
viability, T/C (second compound 0.00316 µM, first compound 1 µM): 0.34%
viability, T/C [11]: 98.9%
viability, T/C [12]: 109%
viability, T/C [13]: 8.64%
viability, T/C [14]: 18.4%
viability, T/C (second compound 0.01 µM, first compound 0.316 µM): 2.31%
viability, T/C (second compound 0.01 µM, first compound 1 µM): 2.27%
viability, T/C [15]: 103%
viability, T/C [16]: 87.8%
viability, T/C [17]: 71.4%
viability, T/C [18]: 8.55%
viability, T/C (second compound 0.0316 µM, first compound 0.316 µM): 1.84%
viability, T/C (second compound 0.0316 µM, first compound 1 µM): 1.89%
viability, T/C [19]: 99.6%
viability, T/C [20]: 99.8%
viability, T/C [21]: 70.7%
viability, T/C [22]: 1.22%
viability, T/C (second compound 0.1 µM, first compound 0.316 µM): 0.55%
viability, T/C (second compound 0.1 µM, first compound 1 µM): 1.32%
viability, T/C [23]: 109%
viability, T/C [24]: 107%
viability, T/C [25]: 56%
viability, T/C [26]: 14.7%
viability, T/C (second compound 0.316 µM, first compound 0.316 µM): 2.54%
viability, T/C (second compound 0.316 µM, first compound 1 µM): 1.35%
viability, T/C [27]: 102%
viability, T/C [28]: 106%
viability, T/C [29]: 32.9%
viability, T/C [30]: 1.86%
viability, T/C (second compound 1 µM, first compound 0.316 µM): 0.87%
viability, T/C (second compound 1 µM, first compound 1 µM): 1.24%
